SMILES strings stand for the structures. Where “and” joins values, the source holds several entries; their conditions need not be identical. Identical values can stand only once.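 Tested at 5 concentrations; 48 h exposure; 96-well plates; endpoints linearly interpolated, else capped at highest concentration. GI50 is the concentration that inhibits growth by half. Definition used: TGI = concentration required for complete inhibition of growth.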

Test systems include SK-MEL-2 melanoma; OVCAR-4 ovarian; NCI-H460 lung; IGROV1 ovarian; KM12 colon; ACHN renal; MOLT-4 leukemia; CCRF-CEM leukemia; U251 CNS; MALME-3M melanoma.
What all share (test): growth of human tumour cells (NCI), 48 h

Turning to `Nc1nc(SCc2ccc([N+](=O)[O-])cc2)nc2c1ncn2C1OC(COP(=O)(O)O)C(O)C1O` (stereo not drawn), the TGI in the assay with SK-MEL-2 melanoma, in the assay on OVCAR-4 ovarian, in the assay on NCI-H460 lung, with IGROV1 ovarian, in the assay with KM12 colon and in the assay with ACHN renal was above 100 µM each time. For the same compound, the TGI with MOLT-4 leukemia, with CCRF-CEM leukemia, in the assay on U251 CNS and in the assay on MALME-3M melanoma was above 100 µM throughout.
In the case of `CC(NC(=O)C(C)NC(=O)C(N)CCP(C)(=O)O)C(=O)O` (stereo not drawn), the TGI in the assay on SK-MEL-2 melanoma, in the assay with OVCAR-4 ovarian, in the assay with NCI-H460 lung, with IGROV1 ovarian, in the assay on KM12 colon and in the assay on MOLT-4 leukemia was above 100 µM throughout. The TGI with CCRF-CEM leukemia, with U251 CNS and in the assay on MALME-3M melanoma was above 100 µM each time.
Regarding `C[Si](C)(OCCS(=O)(=O)O)C1(Cc2cccc3ccccc23)S(=O)(=O)OCCOS1(=O)=O`, the TGI in the assay with SK-MEL-2 melanoma stood at 46.3 µM; in the assay with OVCAR-4 ovarian, 52.3 µM; with NCI-H460 lung it was 41.1 µM; in the assay on IGROV1 ovarian it was 36.3 µM; in the assay with KM12 colon, 29.5 µM; in the assay with ACHN renal, 51.9 µM. For the same compound, the TGI with MOLT-4 leukemia was above 100 µM; with CCRF-CEM leukemia it was 45.9 µM; in the assay with U251 CNS, 63.7 µM.
In the case of `Cc1ccc(N2Cc3c(ccc4ccccc34)OP2(=O)Oc2ccc(Cl)c(C)c2)cc1` (stereo not drawn), the TGI in the assay on SK-MEL-2 melanoma, in the assay on OVCAR-4 ovarian, with NCI-H460 lung, in the assay with IGROV1 ovarian, in the assay on KM12 colon and in the assay with MOLT-4 leukemia was above 100 µM throughout. The TGI in the assay on CCRF-CEM leukemia, in the assay on U251 CNS and in the assay on MALME-3M melanoma was above 100 µM in each case.
For `CC(C)OP(=O)(OC(C)C)/C(I)=N/Nc1ccc([N+](=O)[O-])cc1`, the TGI in the assay on SK-MEL-2 melanoma, with OVCAR-4 ovarian, in the assay with NCI-H460 lung, in the assay on IGROV1 ovarian, in the assay on KM12 colon and in the assay on ACHN renal was above 100 µM throughout. For the same compound, the TGI in the assay on MOLT-4 leukemia, in the assay with CCRF-CEM leukemia, with U251 CNS and with MALME-3M melanoma was above 100 µM each time.
Consider `Cc1ccc(N=N/C(=N\NC(=O)c2ccc(C)cc2)c2ccc(N(CCC#N)CCC#N)cc2C)cc1`, for which the TGI with SK-MEL-2 melanoma was 51.6 µM; with OVCAR-4 ovarian, above 100 µM; in the assay on NCI-H460 lung, above 100 µM; in the assay with IGROV1 ovarian, 60.6 µM; in the assay on KM12 colon it was 30.3 µM; in the assay on ACHN renal, above 100 µM. In addition, the TGI with MOLT-4 leukemia, in the assay with CCRF-CEM leukemia and in the assay with U251 CNS was above 100 µM each time.
Regarding `N[C@H](C(=O)O)[C@H]1ON=C(Cl)[C@@H]1O`, the GI50 with SK-MEL-2 melanoma was 9.75 µM; in the assay with OVCAR-4 ovarian, 5.32 µM; in the assay with NCI-H460 lung, 3.92 µM; in the assay with IGROV1 ovarian, 7.86 µM; in the assay with KM12 colon, 2.23 µM; in the assay with MOLT-4 leukemia, 2.48 µM. The GI50 is 5.15 µM in the assay on CCRF-CEM leukemia, 11.4 µM in the assay on U251 CNS and 40.2 µM in the assay on MALME-3M melanoma. For the same compound, the TGI in the assay on SK-MEL-2 melanoma is above 550 µM; in the assay with OVCAR-4 ovarian, 42.2 µM; in the assay on NCI-H460 lung, > 52.9 µM and 174 µM; in the assay with IGROV1 ovarian it was above 309 µM; with KM12 colon it was above 550 µM; in the assay with MOLT-4 leukemia, 68 µM. The TGI is above 246 µM with CCRF-CEM leukemia, above 550 µM in the assay with U251 CNS and above 255 µM in the assay with MALME-3M melanoma.
Turning to `COc1ccc(-n2cnnc2-c2nsc3ccccc23)cc1`, the TGI in the assay on SK-MEL-2 melanoma, in the assay on OVCAR-4 ovarian, in the assay with NCI-H460 lung, in the assay on IGROV1 ovarian, in the assay with KM12 colon and with ACHN renal was above 100 µM each time. In addition, the TGI in the assay with MOLT-4 leukemia, with CCRF-CEM leukemia and in the assay on U251 CNS was above 100 µM in each case.
`CC1=Nc2nc(Cl)cn2C(=O)C1(Cl)Cl`: the TGI in the assay on SK-MEL-2 melanoma, in the assay with OVCAR-4 ovarian, in the assay on NCI-H460 lung, in the assay with IGROV1 ovarian, in the assay on KM12 colon and in the assay on ACHN renal was above 10 µM in each case. Moreover, the TGI with MOLT-4 leukemia, with CCRF-CEM leukemia, with U251 CNS and with MALME-3M melanoma was above 10 µM throughout.

Source of the values: PubChem BioAssay (NCI).
